Data published in patent US20260183392A1, “METHODS AND KITS FOR DNA EDITING AND TREATING, AMELIORATING AND/OR PREVENTING CANCER” (FC IP Holdings, LLC, priority 2022, published 2026).

How the values were obtained:
[1] = system: TRAC locus in primary T cells; assay: Anti-CD19xCD22 CAR knock-in at TRAC locus in primary T cells (Protein L, flow cytometry); assay type: cell-based, human; details: 2 μg of cssDNA plus 1 μM M-3814; Day 7
Text: FIGS. 7A-7I: CAR-T cell engineering with cssDNA, in accordance with some embodiments. FIG. 7A: Schematic diagram of nonviral CAR-T cell engineering process. Pan T cells are isolated from peripheral blood and activated on day 0 with anti-CD3/anti-CD28 TransAct. Cells are electroporated using the Lonza nucleofector on day 2 with Cas9 RNPs+cssDNA HDR donor templates and then expanded for a total of 7-10 days. FIG. 7B: Representative day 7 flow cytometry graphs showing CAR knock-in for Mock (un-engineered) and cssDNA-engineered T cells with DMSO or 1 μM M-3814 treatments. FIG. 7C: Representative day 7 flow plots and quantifications of CAR knock-in for mock (un-engineered), cssDNA- or AAV6-engineered T cells. Cells were treated with 1 μM M-3814 for 1 day immediately after electroporation. FIG. 7D: Expansion ability of engineered CAR-T cells. FIG. 7E: In vitro killing of NALM6 acute lymphoblastic leukemia cell line with cssDNA-, AAV6-engineered CAR-T cells in comparison to unmodified T cells from same blood donors after 24 hours of co-culture. The in vitro killing measured by live cell imaging using IncuCyte® live cell imaging system. […] FIG. 7G: the data of FIG. 7F, expressed as a bar chart. […] I. FIG. 7I, Tumor burden shown as bioluminescent signal quantified per animal every week over a 21-day period. n=5 mice per group. […]

iPSC = assay: Cell viability / cell health of engineered iPSC; assay type: cell-based
Text: FIGS. 3A-3H: induced pluripotent stem cells (iPSC) engineering according to some embodiments. FIG. 3A: GFP knock-in efficiency (on Day 7) at RAB11A locus in iPSC using cssDNA or dsDNA as donor templates. FIG. 3B: Cell viability of cssDNA- and dsDNA-engineered iPSC as measured on Day 3. FIG. 3C: Does-dependent GFP reporter knock-in using GFP reporter cssDNA targeting RAB11A or B2M locus. FIG. 3D: GFP fluorescence and phase contrast imaging of representative engineered iPSC colony. FIG. 3E: Schematic diagram of cssDNA donor templates for multiplexed reporter gene knock-in at RAB11A and B2M loci. FIG. 3F: Dual knock-in of mCherry and GFP report genes at the same RAB11A locus. FIG. 3G: Dual knock-in of mCherry and GFP report genes at RAB11A locus and B2M locus, respectively. […] GFP knock-in efficiency was assessed on Day 7 post electroporation by flow cytometry. […]
The present study next evaluated small-molecule inhibitors that have been reported to enhance knock-in efficiency, including the DNA-dependent protein kinase (DNA-PK) inhibitor M-3814 and “Alt-R HDR enhancer 2” (HDRe.v2), which is described as a nonhomologous end joining (NHEJ) inhibitor (Kath et al., Mol Ther Methods Clin Dev. 2022 April 12:25:311-330; Shy et al., Nat Biotechnol. 2023 April; 41 (4): 521-531; and Tatiossian et al., Mol Ther. 2021 Mar. 3; 29 (3): 1057-1069). […]

[2] = system: RAB11A locus and TRAC locus in human primary T cells; assay: GFP reporter knock-in at RAB11A or TRAC locus in human primary T cells; assay type: cell-based; details: 1 μM for 24 hours vs DMSO; cssDNA donors; Day 7
Protocol: FIGS. 5A-5D: Innate immune response in primary T cells, in accordance with some embodiments. FIG. 5A: Schematic diagram of the GFP reporter cssDNA targeting RAB11A locus and TRAC locus (Upper). GFP reporter knock-in efficiency with cssDNA donor templates in human primary T cells. Immediately after electroporation, cells were treated with either DMSO or 1 μM M-3814 for 24 hours. The knock-in efficiency was examined on Day 7 post electroporation. FIG. 5B. Secreted IFN-γ and TNF-α cytokines levels in cultured primary T medium after electroporation with buffer, dsDNA, cssDNA or mRNA molecules. Conditioned media were collected for cytokine analysis using the Ella immunoassay platform with selected panels. FIGS. 5C-5D: Gene set enrichment analysis (GSEA) enrichment analysis of interferon gamma response genes on the differential expression genes (DEG) of from the dsDNA or cssDNA treated primary T cells. […]
Genetically engineered T cell immunotherapies have provided remarkable clinical success to treat B cell acute lymphoblastic leukemia and have the potential to provide therapeutic benefit for numerous other cancers, infectious diseases, and autoimmunity. […] Primary T cells were co-electroplated with respective RNPs, and knock-in efficiency was determined on Day 7 post electroporation by GFP^+ cell percentage using flow cytometry. […]

human B2M locus = assay: Screen of crRNA for Cpf1 at human B2M locus (cleavage efficiency)

Compound | knock-in efficiency (percentage of CAR+ cells) [1] [%] | live cell counts (iPSC; at the chosen concentrations) | reduction in cell viability (iPSC; higher doses, day 4 post-electroporation) | increase of knock-in efficiency [2] | cleavage efficiency (human B2M locus)
COc1ccc([C@@H](O)c2cc(-c3ncnc4cc(N5CCOCC5)ccc34)c(F)cc2Cl)nn1 [M-3814] | 56.3 | generally unaffected | roughly 38% | 60-150% | 
Cpf1-crRNA: crRNA for Cpf1 at human B2M locus identified by screening (guide AGUGGGGGUGAAUUCAGUGU; chemistry not fully specified) |  |  |  |  | over 95%
